Entries after “also recorded” stand apart in the source; their conditions may differ.
Experiments:
desmocollin-1 (DSC1) = test: qRT-PCR of Dsc1 gene expression in vaginal tissue; type: in vivo, mice; conditions: progestin-treated mice vs mice in estrus
Protocol: To define progestin-mediated changes in mucosal permeability, vaginal tissue from mice in estrus, diestrus, or after DMPA or LNG treatment was used to measure expression of the desmosomal cadherins desmoglein-1a (DSG1a) and desmocollin-1 (DSC1).
(§1) Human ectocervical and murine vaginal tissues were immediately immersed in 1 mL of RNAlater® (Qiagen), stored for 24 h at 4° C., and stored long-term at −80° C. RNA isolated using the RNeasy Lipid Tissue Kit (Qiagen) using manufacturer's instructions was re-suspended in nuclease-free water and quantified using a NanoDrop spectrophotometer (Thermo Scientific). The following mouse primers were utilized: desmocollin 1 (Mm00496525_ml), desmoglein-1α (Mm00809994_s1), ephrinA3 (Mm01212723_g1) and pyruvate carboxylase (Mm00500992_ml) as housekeeping reference gene (all from Thermo Scientific). These human primers were used: desmoglein-1 (Hs00355084_m1) and glucose-6-phosphate isomerase (Hs00976711_m1) as a housekeeping reference gene. To define relative gene expression, 100 ng of RNA was mixed with TaqMan® RNA-to-Ct™ 1-Step Kit and adequate primer (final volume of 10 μL/well) using manufacturer's instructions (Life Technologies). qRT-PCR was performed using a Quantstudio3 Thermal Cycler, and data analyzed via Quanstudio Software (Applied Biosystems).

[1] = tested on: claudin-1, occludin, and tight junction protein 1; test: Gene expression of other cell-cell adhesion molecules in vaginal tissue; type: in vivo, mice
DSG1 = DSG1 gene expression in ectocervical biopsies from women; type: in vivo; conditions: 1 month after initiating DMPA vs no hormonal contraceptive
Text: FIG. 3 is a graph showing the effect of DMPA on ectocervical DSG1 gene expression in women. Ectocervical biopsy tissue collected from the same women; before they started (No HC) and 1 month after they initiated DMPA.
To confirm the relevance of the mouse model findings, DMPA-mediated changes in mucosal permeability was explored with ectocervical biopsies from women using no hormonal contraceptive and again 1 month after they initiated DMPA.
as §1, with “These human primers were used: desmoglein-1 (Hs00355084_m1) and glucose-6-phosphate isomerase (Hs00976711_m1) as a housekeeping reference gene.” left out

[2] = tested on: upstream regulators EFNA3 and ROCK2; test: Genome-wide gene expression and pathway analysis of vaginal tissue; type: in vivo; conditions: DMPA-treated vs estrus-stage mice
Protocol: The above results established changes that occur in genital mucosa of women initiating DMPA are recapitulated in DMPA-treated mice, and these that changes include lower expression of the cell-cell adhesion molecule DSG1 and increased genital mucosal permeability. To investigate mechanisms for DMPA-mediated downregulation of DSG1, genome-wide gene expression studies were performed with vaginal tissue from estrus-stage mice (i.e., mice resistant to genital HSV infection) and DMPA-treated mice (i.e., mice highly susceptible to this virus). […] EFNA molecules are involved in pathways that induce DSG1 expression and regulate epithelial cell responses and formation of intercellular adhesion complexes, and Eph receptors stimulate ROCK2-mediated actinomyosin contractility that increases keratinocyte differentiation via DSG1 upregulation. These gene expression analyses thus identified a potential mechanism by which progestins alter E-regulated expression of EFNA3 and ROCK2 and levels of DSG1. As EFNA3, DSG1, and ROCK2 are basally expressed in human genital epithelium, capacity of this E-regulated pathway to promote genital mucosal integrity in mice may also extend to results seen in the human female genital tract.

EphrinA3 (EFNA3) = test: EphrinA3 gene and protein expression in vaginal tissue (RT-PCR, immunohistochemistry); type: in vivo; conditions: DMPA-treated vs estrus-stage mice
Text: Vaginal tissue was harvested from mice in estrus, DMPA-treated mice, and mice treated with DMPA and Premarin vaginal cream were placed in RNAlater® for RNA isolation or embedded in formaldehyde for histology analysis. FIG. 5A is a bar graph showing gene expression for Ephrin A3 (Efna3) relative to pyruvate carboxylase, a housekeeping gene.
To corroborate microarray results, EphrinA3 gene and protein expression were compared in estrus-stage and DMPA-treated mice. To also evaluate effects of exogenous estrogen, other DMPA-treated mice were treated intravaginally with the estrogen cream Premarin. […] The vaginal tissue was assessed for DSG1 protein levels using immunofluorescent staining and confocal microscopy.
Human ectocervical and murine vaginal tissues were immediately immersed in 1 mL of RNAlater® (Qiagen), stored for 24 h at 4° C., and stored long-term at −80° C. RNA isolated using the RNeasy Lipid Tissue Kit (Qiagen) using manufacturer's instructions was re-suspended in nuclease-free water and quantified using a NanoDrop spectrophotometer (Thermo Scientific). […] To define relative gene expression, 100 ng of RNA was mixed with TaqMan® RNA-to-Ct™ 1-Step Kit and adequate primer (final volume of 10 μL/well) using manufacturer's instructions (Life Technologies). qRT-PCR was performed using a Quantstudio3 Thermal Cycler, and data analyzed via Quanstudio Software (Applied Biosystems). […]

HSV-1 = test: Genital HSV-1 GFP infection, virus replication in vaginal epithelium; type: in vivo, mice; conditions: 1.5 ug/30 uL ivag 24 h prior to 3×10^3 PFU HSV-1 GFP; tissue 24 h after infection
Protocol: Estrus-stage or DMPA-treated mice were intravaginally administered vehicle or recombinant mouse Fc-EFNA3 at 1.5 ug/30 uL 24 h prior to genital infection with 3×10^3 PFU HSV-1q GFP (fluorescent virus). Vaginal tissue was recovered 24 h after infection and evaluated for HSV-1 replication in the vaginal epithelium using confocal microscopy. […] To evaluate if treatment with rm-EphrinA3 protects mice from lethal HSV-2 infection, DMPA-treated mice were intravaginally administered Fc- or His-tagged versions of the rm-protein prior to infection. […] Because the microarray data indicated EphrinA1, EphrinA2, EphrinA3, EphrinA4, and EphrinA5 were upstream regulators of Dsg1 and Dsc1 expression in the mouse vagina, we hypothesized that capacity of EphrinA3 to increase cell-cell adhesion molecule expression may be shared by other members of the EphrinA family.

## CC(=O)O[C@]1(C(C)=O)CC[C@H]2[C@@H]3C[C@H](C)C4=CC(=O)CC[C@]4(C)[C@H]3CC[C@@]21C [DMPA]
desmocollin-1 (DSC1)
  DSC1 gene expression in vaginal tissue: decrease gene expression levels
[1]
  gene expression of claudin-1, occludin, and tight junction protein 1: did not alter
DSG1
  DSG1 expression in ectocervical tissue: significantly lower
[2]
  effect on signaling pathways (pathway analysis): inhibition of signaling pathways that involve ephrin-A3 (EFNA3) and ROCK2
[2]; upstream regulator EFNA3
  Expr Log Ratio: −2.593
EphrinA3 (EFNA3)
  expression of EphrinA3 in vaginal mucosal tissue: dramatically impair expression; also recorded: reduces EFNA3 expression
HSV-1
  Foci of virus replication observed in vaginal epithelium: observed
